Results taken from PubChem BioAssay AID2060616 (Molecular Pharmacology Branch, DTP, NCI, 2025).

System: 377384-186-R-J1-PDC complex spheroid viability
Experiment: Anticancer human tumor 377384-186-R-J1-PDC patient-derived pancreatic carcinoma cell line growth inhibition [CLK]
Conditions: for IC50: curve of first compound; for viability, T/C: stronger effect = lower value
Outline: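 Multi-cell-type spheroids combined patient-derived tumor cells with HUVEC endothelial cells and human mesenchymal stem cells. Paired agents were dosed in half-log steps down from about clinical Cmax, or from 10 microM where Cmax was unknown.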
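Also: spheroids exposed to agents for 7 days before reading.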
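For viability, T/C in this document: luminescence signal used as a stand-in for viable cells.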

`COc1ccc([C@@H](O)c2cc(-c3ncnc4cc(N5CCOCC5)ccc34)c(F)cc2Cl)nn1` + CNC(=O)c1ccc(Nc2nc(OC3CCCC3)c3c(-c4ccc5nc(C)oc5c4)c[nH]c3n2)c(OC)c1 was tested, and the IC50 (second compound 0.0316 µM) was 1640 nM, the IC50 (second compound 0.1 µM) was less than 31.6 nM and the IC50 (second compound 0.316 µM) was less than 31.6 nM. For the same compound, the IC50 (second compound 1 µM) was less than 31.6 nM, the IC50 (second compound 3.16 µM) was less than 31.6 nM and the IC50 (second compound 10 µM) was less than 31.6 nM. The viability, T/C (second compound 0.0316 µM, first compound 0.0316 µM) was 93.6%, the viability, T/C (second compound 0.0316 µM, first compound 0.1 µM) was 99.5% and the viability, T/C (second compound 0.0316 µM, first compound 0.316 µM) was 92%. It also gave a viability, T/C (second compound 0.0316 µM, first compound 1 µM) of 54.9%, a viability, T/C (second compound 0.0316 µM, first compound 3.16 µM) of 49.6% and a viability, T/C (second compound 0.0316 µM, first compound 10 µM) of 29.4%. It also gave a viability, T/C (second compound 0.1 µM, first compound 0.0316 µM) of 36.8%, a viability, T/C (second compound 0.1 µM, first compound 0.1 µM) of 33.5% and a viability, T/C (second compound 0.1 µM, first compound 0.316 µM) of 40.5%. The viability, T/C (second compound 0.1 µM, first compound 1 µM) was 35%, the viability, T/C (second compound 0.1 µM, first compound 3.16 µM) was 26.5% and the viability, T/C (second compound 0.1 µM, first compound 10 µM) was 19.5%. For the same compound, the viability, T/C (second compound 0.316 µM, first compound 0.0316 µM) was 16.1%, the viability, T/C (second compound 0.316 µM, first compound 0.1 µM) was 14.4% and the viability, T/C (second compound 0.316 µM, first compound 0.316 µM) was 17.4%. It also gave a viability, T/C (second compound 0.316 µM, first compound 1 µM) of 16.6%, a viability, T/C (second compound 0.316 µM, first compound 3.16 µM) of 16.1% and a viability, T/C (second compound 0.316 µM, first compound 10 µM) of 13.6%. It also gave a viability, T/C (second compound 1 µM, first compound 0.0316 µM) of 15.9%, a viability, T/C (second compound 1 µM, first compound 0.1 µM) of 18.2% and a viability, T/C (second compound 1 µM, first compound 0.316 µM) of 18.3%. The viability, T/C (second compound 1 µM, first compound 1 µM) was 15.9%, the viability, T/C (second compound 1 µM, first compound 3.16 µM) was 15.3% and the viability, T/C (second compound 1 µM, first compound 10 µM) was 15.5%. For the same compound, the viability, T/C (second compound 3.16 µM, first compound 0.0316 µM) was 14.7%, the viability, T/C (second compound 3.16 µM, first compound 0.1 µM) was 17.8% and the viability, T/C (second compound 3.16 µM, first compound 0.316 µM) was 18.1%. It also gave a viability, T/C (second compound 3.16 µM, first compound 1 µM) of 16.2%, a viability, T/C (second compound 3.16 µM, first compound 3.16 µM) of 16.6% and a viability, T/C (second compound 3.16 µM, first compound 10 µM) of 15.5%. It also gave a viability, T/C (second compound 10 µM, first compound 0.0316 µM) of 15.7%, a viability, T/C (second compound 10 µM, first compound 0.1 µM) of 13.2% and a viability, T/C (second compound 10 µM, first compound 0.316 µM) of 17.6%. It also gave a viability, T/C (second compound 10 µM, first compound 1 µM) of 15.7%, a viability, T/C (second compound 10 µM, first compound 3.16 µM) of 17.3% and a viability, T/C (second compound 10 µM, first compound 10 µM) of 15.4%.
